26 compounds from ChEMBL document CHEMBL5244277, “A review upon medicinal perspective and designing rationale of DPP-4 inhibitors” (Bioorg Med Chem, 2021) can be followed below.

The target in data set [1] is T1, Dipeptidyl peptidase 4 (Homo sapiens, UniProt P27487). Briefly: Inhibition of DPP4 (unknown origin) using Gly-Pro-AMC as substrate incubated for 30 mins by spectroscopic analysis.
Target sequence in this assay (P27487 whole entry): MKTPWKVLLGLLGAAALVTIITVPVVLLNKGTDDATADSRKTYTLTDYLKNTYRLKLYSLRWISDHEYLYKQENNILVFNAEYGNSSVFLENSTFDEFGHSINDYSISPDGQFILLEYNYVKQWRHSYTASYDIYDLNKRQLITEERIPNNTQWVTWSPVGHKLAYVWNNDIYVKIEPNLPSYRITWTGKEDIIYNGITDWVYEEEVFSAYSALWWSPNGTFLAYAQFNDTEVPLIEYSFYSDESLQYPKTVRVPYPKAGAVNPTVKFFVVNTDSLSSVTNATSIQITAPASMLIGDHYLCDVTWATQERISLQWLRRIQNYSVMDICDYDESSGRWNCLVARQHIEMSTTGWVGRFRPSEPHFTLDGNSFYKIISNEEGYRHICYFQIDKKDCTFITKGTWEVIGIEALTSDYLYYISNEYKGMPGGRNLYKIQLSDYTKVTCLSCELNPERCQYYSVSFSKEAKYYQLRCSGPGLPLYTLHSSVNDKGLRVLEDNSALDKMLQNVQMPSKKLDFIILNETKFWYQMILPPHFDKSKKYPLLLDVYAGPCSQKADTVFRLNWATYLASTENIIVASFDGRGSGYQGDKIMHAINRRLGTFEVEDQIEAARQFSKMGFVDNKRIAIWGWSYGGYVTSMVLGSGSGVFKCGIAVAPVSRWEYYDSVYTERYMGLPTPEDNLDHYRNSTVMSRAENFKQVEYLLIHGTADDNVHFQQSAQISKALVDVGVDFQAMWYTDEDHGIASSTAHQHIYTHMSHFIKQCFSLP
Data set [2] concerns the target T1, Dipeptidyl peptidase 4. It is filed as cell-based, Caco-2.
Target sequence in this assay (P27487 whole entry): as above
The target in data set [3] is T1, Dipeptidyl peptidase 4. Briefly: Inhibition of human recombinant DPP-4 at 100 uM using Gly-Pro-Aminomethylcoumarin as substrate by Spectra max fluorometer analysis relative to control.
Target sequence in this assay (P27487 whole entry, looked up): as the sequence (P27487 whole entry) above
Data set [4] deals with T1, Dipeptidyl peptidase 4. Briefly: Inhibition of DPP-4 (unknown origin) at 100 uM relative to control.
Target sequence in this assay (P27487 whole entry, looked up): as the sequence (P27487 whole entry) above
Data set [5] has as its target T1, Dipeptidyl peptidase 4. The experiment in a line: Inhibition of human recombinant DPP-4 using H-Gly-Pro-aminomethylcoumarin as substrate.
Target sequence in this assay (P27487 whole entry): as above
The species named for data set [6] is Homo sapiens. Briefly: Selectivity index, ratio of IC50 for human recombinant DPP-4 to IC50 for human recombinant DPP-8.
Data set [7] deals with T1, Dipeptidyl peptidase 4. The experiment in a line: Inhibition of human recombinant DPP-4 using H-Gly-Pro-aminomethylcoumarin as substrate at 100 uM relative to control.
Target sequence in this assay (P27487 whole entry, looked up): as the sequence (P27487 whole entry) above
The species entered for data set [8] is Homo sapiens. Briefly: Selectivity index, ratio of IC50 for human recombinant DPP-4 to IC50 for human recombinant DPP-9.
Data set [9] in a line: Antioxidant activity assessed as DPPH radical scavenging activity. The class given is functional.
For a further data set, the system named is Rattus norvegicus. The experiment in a line: Antihyperglycemic activity in STZ-induced diabetic rat model assessed as reduction in blood glucose level at 100 mg/kg, po measured upto 24 hrs. The class given is functional. Details: scale not given: the % may be the effect or the level left.
For data set [10], the system named is Mus musculus. Briefly: Hypoglycemic activity in C57BL/6J mouse assessed as reduction in blood glucose level at 10 mg/kg, po measured at 20 to 80 mins by OGTT analysis. The class given is functional. Details: scale not given: the % may be the effect or the level left. As to conditions: time 20-80 min.
For data set [11], the target named is T1, Dipeptidyl peptidase 4.
Target sequence in this assay (P27487 whole entry): as above
Data set [12] has as its target T1, Dipeptidyl peptidase 4. The source holds these as a separate data set.
Target sequence in this assay (P27487 whole entry): as above
The subject of data set [13] is Mus musculus. Briefly: Antidiabetic activity in C57BL/6J mouse assessed as decrease in AUC of glucose at 3 mg/kg, po. The class given is functional. Details: scale not given: the % may be the effect or the level left.
Data set [14] deals with T1, Dipeptidyl peptidase 4. This is another data set of the same source.
Target sequence in this assay (P27487 whole entry, looked up): as the sequence (P27487 whole entry) above
The nature of data set [15]: Bioavailability in rat. It is filed as ADME, organism-based. As to conditions: in vivo.
The target of another data set is Dipeptidyl peptidase 8 (Homo sapiens, UniProt Q6V1X1). Briefly: Inhibition of DPP-8 (unknown origin).
Chain of Dipeptidyl peptidase 8 (Q6V1X1 whole entry): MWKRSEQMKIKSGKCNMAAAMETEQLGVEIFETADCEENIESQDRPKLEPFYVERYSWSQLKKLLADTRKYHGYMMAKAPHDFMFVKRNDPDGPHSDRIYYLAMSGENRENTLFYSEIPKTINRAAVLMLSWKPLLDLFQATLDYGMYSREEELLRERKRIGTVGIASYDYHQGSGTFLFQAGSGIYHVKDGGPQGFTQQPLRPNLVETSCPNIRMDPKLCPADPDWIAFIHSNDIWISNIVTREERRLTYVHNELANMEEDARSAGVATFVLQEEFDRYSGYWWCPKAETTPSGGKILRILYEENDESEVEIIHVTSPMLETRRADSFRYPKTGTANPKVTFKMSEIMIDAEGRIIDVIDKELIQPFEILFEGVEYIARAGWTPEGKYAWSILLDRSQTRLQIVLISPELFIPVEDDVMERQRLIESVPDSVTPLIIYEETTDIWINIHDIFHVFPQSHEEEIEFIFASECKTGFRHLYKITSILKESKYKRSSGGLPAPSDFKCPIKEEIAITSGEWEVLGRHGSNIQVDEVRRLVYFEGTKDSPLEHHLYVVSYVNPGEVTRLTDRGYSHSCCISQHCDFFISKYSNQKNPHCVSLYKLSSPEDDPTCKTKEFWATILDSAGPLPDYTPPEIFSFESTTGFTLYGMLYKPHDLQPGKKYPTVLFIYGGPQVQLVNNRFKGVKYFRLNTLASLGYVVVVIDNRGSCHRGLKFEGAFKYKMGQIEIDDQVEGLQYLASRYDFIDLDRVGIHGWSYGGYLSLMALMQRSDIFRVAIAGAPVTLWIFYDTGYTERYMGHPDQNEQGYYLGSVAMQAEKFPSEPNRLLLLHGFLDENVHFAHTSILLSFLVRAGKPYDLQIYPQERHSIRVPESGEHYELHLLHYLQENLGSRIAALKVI
In another data set the target is Dipeptidyl peptidase 9 (Homo sapiens, UniProt Q86TI2). The experiment in a line: Inhibition of DPP-9 (unknown origin).
Chain of Dipeptidyl peptidase 9 (Q86TI2 whole entry): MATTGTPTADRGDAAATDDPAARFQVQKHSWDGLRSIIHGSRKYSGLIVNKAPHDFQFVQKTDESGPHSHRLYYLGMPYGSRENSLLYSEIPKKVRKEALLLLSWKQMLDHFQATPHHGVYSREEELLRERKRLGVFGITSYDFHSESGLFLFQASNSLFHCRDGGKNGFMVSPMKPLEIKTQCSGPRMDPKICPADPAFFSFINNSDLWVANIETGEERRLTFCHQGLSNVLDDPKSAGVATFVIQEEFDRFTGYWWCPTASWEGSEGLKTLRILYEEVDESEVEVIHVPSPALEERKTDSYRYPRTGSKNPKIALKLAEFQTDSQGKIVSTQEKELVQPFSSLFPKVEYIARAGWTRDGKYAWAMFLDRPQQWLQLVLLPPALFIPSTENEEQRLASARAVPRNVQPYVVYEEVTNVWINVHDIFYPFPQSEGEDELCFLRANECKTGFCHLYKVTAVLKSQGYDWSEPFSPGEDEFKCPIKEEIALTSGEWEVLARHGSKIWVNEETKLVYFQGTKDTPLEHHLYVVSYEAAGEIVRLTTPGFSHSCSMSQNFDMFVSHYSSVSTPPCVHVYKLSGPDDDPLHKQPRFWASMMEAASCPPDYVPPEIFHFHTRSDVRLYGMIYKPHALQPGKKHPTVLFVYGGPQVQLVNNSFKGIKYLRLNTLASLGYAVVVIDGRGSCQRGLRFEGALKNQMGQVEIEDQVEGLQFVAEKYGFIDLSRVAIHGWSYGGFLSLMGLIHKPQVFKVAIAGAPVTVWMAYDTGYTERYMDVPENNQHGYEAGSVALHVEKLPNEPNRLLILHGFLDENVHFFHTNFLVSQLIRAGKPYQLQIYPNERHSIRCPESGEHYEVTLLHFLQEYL
For data set [16], the system named is Mus musculus. The experiment in a line: Antidiabetic activity in ICR mouse assessed as decrease in AUC of glucose at 10 mg/kg, po. It is filed as functional. Details: scale not given: the % may be the effect or the level left.
Data set [17] is described as follows: Half life in mouse. The settings on record: in vivo. The class given is ADME, organism-based.
The species named for data set [18] is Homo sapiens. The experiment in a line: Selectivity index, ratio of IC50 for DPP-4 (unknown origin) to IC50 for DPP-8 (unknown origin).
Data set [19] is described as follows: AUC in C57BL/6J mouse at 20 mg/kg, po. The settings on record: in vivo. It is filed as ADME, organism-based. Details: dose 20 mg/kg, route po.

Each structure is given as a SMILES string. In brackets after ≈: the same amount, converted by molar mass. A value given as a limit tells only on which side of the number the result lay.

As for `O=C([C@H]1CC[C@@H](n2cc(-c3ccccc3O)nn2)C1)N1CCC(F)(F)C1`, half-maximal inhibition at Dipeptidyl peptidase 4 [1] (IC50) was put at 620 nM. Turning to `N[C@@H](CC(=O)N1CCC[C@H]1CNC(=O)c1cc(S(=O)(=O)N2CCOCC2)c(F)cc1F)[C@H]1CCc2cc(F)c(F)cc21`, on Dipeptidyl peptidase 4 [2], the IC50 (commonly the midpoint of a concentration-inhibition curve) stood at 0.87 nM.

Take `CCOC(=O)c1ccc2cc(OCC(=O)N3CCCCC3)c(=O)oc2c1`: the inhibition – broadly, the percentage by which the read-out fell short of the control – on Dipeptidyl peptidase 4 [3] worked out at 1.3%.

In the case of `COc1ccc(CCNC(=S)N/C=C2\C(=O)Oc3ccccc3C2=O)cc1OC`, the inhibition against Dipeptidyl peptidase 4 [4] is more than 50%.

The compound `CCN(CC)S(=O)(=O)c1cc(C(=O)NC[C@@H]2CCCN2C(=O)C[C@H](N)[C@H]2CCc3cc(F)c(F)cc32)c(F)cc1F` displayed an IC50 against Dipeptidyl peptidase 4 [2] of 0.87 nM. Consider `Cc1ccccc1-c1nc2ccccn2c1CN`, for which, at Dipeptidyl peptidase 4 [5], the IC50 came to 290 nM. The Ratio IC50 in the data set filed under Homo sapiens [6] and in the data set filed under Homo sapiens [8] was more than 340 throughout. For the same compound, the inhibition on Dipeptidyl peptidase 4 [7] turned out to be 59%. For `O=[N+]([O-])c1cccc(/C=N/N2C(c3ccccc3)=Nc3ccc(I)cc3C2Nc2nccs2)c1` (stereo unspecified), the IC50 in [9] was 51.23 µg/mL (≈ 88.3 µM). On to `O=C(CN1CCN(c2ccnc3cc(Cl)ccc23)CC1)N1CCOCC1`, for which the Activity in the data set with Rattus norvegicus came out at 17.4%. Regarding `N[C@@H](CC(=O)N1CCC[C@H]1CNC(=O)c1cc(S(N)(=O)=O)c(F)cc1F)[C@H]1CCc2cc(F)c(F)cc21`, the Activity in the data set with Mus musculus [10] is reported as 12%. Moreover, the IC50 on Dipeptidyl peptidase 4 [2] amounted to 0.87 nM. For `CC#CCn1c(N2CCC[C@@H](N)C2)cc(=O)n(Cc2cn(-c3ccccc3)nn2)c1=O`, on Dipeptidyl peptidase 4 [11], the IC50 amounted to 185 nM. `N[C@@H](CC(=O)N1CCC[C@H]1CNC(=O)c1cccnc1)[C@H]1CCc2cc(F)c(F)cc21` displayed an IC50 on Dipeptidyl peptidase 4 [2] of 0.87 nM. On Dipeptidyl peptidase 4 [12], `Cc1c(-c2cc(S(=O)(=O)c3ccccc3)n[nH]2)c(=O)n(C)n1C` had an IC50 of less than 15 nM.

For `NCC1CN(CCCc2ccc3c(c2)OCO3)C(=O)CC1c1cc(F)ccc1F` (stereo unspecified), the Activity in the data set on Mus musculus [13] is on record as 38.9%. With `Cl.N[C@@H](CC(=O)N1CCn2c(nnc2C(F)(F)F)[C@H]1c1ccc(F)cc1)Cc1cc(F)c(F)cc1F`, the IC5 on Dipeptidyl peptidase 4 [14] came to 0.18 nM. Further, the bioavailability (usually the share of a dose that reaches the circulation, judged against a reference dose that is usually intravenous) in data set [15] amounted to 76%. In the case of `Cc1nc2cc(-c3ccccc3Cl)nn2c(-c2ccc(Cl)cc2Cl)c1CO`, the Ki at Dipeptidyl peptidase 8 and at Dipeptidyl peptidase 9 was more than 30000 nM throughout. Consider `Cn1c(=O)cc(N2CCC[C@@H](N)C2)n(Cc2ccccc2C#N)c1=O` [ALOGLIPTIN], for which, in the data set with Mus musculus [16], the Activity is 42.5%.

In the case of `N#C[C@@H]1CCCN1C(=O)[C@@H](N)CCC(=O)N1CCn2c(nnc2C(F)(F)F)C1.O=C(O)C(F)(F)F`, in data set [17], the half-life (as a rule, how long it takes for the measured level to halve) was less than 24 h. Besides, in the data set listed under Homo sapiens [18], the Ratio IC50 is more than 1000. Taken in the same sequence, the figures for `N#C[C@@H]1CCCN1C(=O)[C@@H](N)CCC(=O)N1CCn2cnnc2C1` were less than 24 h and more than 1000. In the case of `N#Cc1ccc(C(=O)NCCCC(=O)N2CCC[C@H]2C#N)cc1`, the AUC (commonly the area under the concentration-time curve, a measure of exposure) in data set [19] amounted to 54000 ng·h/mL. For the compound `O=C(CN1CCN(c2ccccn2)CC1)N1CCSC1`, the Activity in the data set on Rattus norvegicus turned out to be 18.4%. As for `O=C(CNc1cc2ccc3ccccc3c2oc1=O)Nc1ccc(Cl)cc1`, the inhibition on Dipeptidyl peptidase 4 [3] worked out at 26.7%.

Take `Cc1nc2cc(-c3ccccc3)nn2c(-c2ccc(Cl)cc2Cl)c1CO`: the Ki on Dipeptidyl peptidase 8 and on Dipeptidyl peptidase 9 was more than 30000 nM throughout. Take `CN1CCN(S(=O)(=O)c2cccc(C(=O)NC[C@@H]3CCCN3C(=O)C[C@H](N)[C@H]3CCc4cc(F)c(F)cc43)c2)CC1`: the Activity with Mus musculus [10] came to 34%. On Dipeptidyl peptidase 4 [2], half-maximal inhibition (IC50) required 1.1 nM. Turning to `CCN(CC)S(=O)(=O)c1cccc(C(=O)NC[C@@H]2CCCN2C(=O)C[C@H](N)[C@H]2CCc3cc(F)c(F)cc32)c1`, the IC50 against Dipeptidyl peptidase 4 [2] turned out to be 0.87 nM. Regarding `COC(=O)C1=C(C)N=C2CC(C)C3(Oc4c(Cl)c(OC)cc(OC)c4C3=O)C(O)=C2C1c1cc2cccc3c2n(c1=O)CCC3` (stereo unspecified), the inhibition against Dipeptidyl peptidase 4 [4] is more than 50%.

On to `COC(=O)c1ccc2cc(OCC(=O)Nc3ccc(C)cc3)c(=O)oc2c1`, for which the inhibition on Dipeptidyl peptidase 4 [3] turned out to be 1.3%.
